Results reported in the supplement of paper PMC12076712.
Each block holds one compound with its values, some of them ahead of it.

Tests used:
Assay in all cases: pIC50, kinobeads binding competition
[1] = target: T1, ACVR1 (UniProt Q04771)
T1 sequence (whole entry): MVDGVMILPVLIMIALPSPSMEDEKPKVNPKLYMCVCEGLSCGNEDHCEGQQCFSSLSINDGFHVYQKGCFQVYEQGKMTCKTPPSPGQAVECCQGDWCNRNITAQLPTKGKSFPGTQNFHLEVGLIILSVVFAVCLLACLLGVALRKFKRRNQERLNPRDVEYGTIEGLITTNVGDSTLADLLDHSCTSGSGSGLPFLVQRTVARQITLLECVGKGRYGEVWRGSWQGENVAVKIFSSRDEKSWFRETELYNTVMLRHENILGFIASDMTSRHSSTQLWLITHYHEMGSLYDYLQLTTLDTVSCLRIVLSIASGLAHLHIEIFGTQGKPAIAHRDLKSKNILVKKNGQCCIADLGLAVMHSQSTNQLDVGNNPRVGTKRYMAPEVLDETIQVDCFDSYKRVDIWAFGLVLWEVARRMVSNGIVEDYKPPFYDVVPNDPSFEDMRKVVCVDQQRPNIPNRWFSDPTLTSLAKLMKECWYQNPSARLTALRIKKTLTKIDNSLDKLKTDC
How it was run: (§1)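 Either living Jurkat cells (60 min at 37 °C, then lysis) or lysates (60 min at 4 °C) were treated with nine compound concentrations from a top of 30 μM, in 1:4 steps for cells and 1:5 steps for lysates. The lysates were from Jurkat cells or a 1:1:1:1 mix of HEK293, K-562, HepG2 and placenta. Kinobeads-bound proteins were digested and quantified by TMT10 LC-MS/MS. pIC50 was calculated by logistic dose-response fitting (R drc package) of fold changes relative to vehicle, in biological duplicates.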

[2] = target: CAMK2G (UniProt Q13555)
Sequence of CAMK2G (Q13555 whole entry): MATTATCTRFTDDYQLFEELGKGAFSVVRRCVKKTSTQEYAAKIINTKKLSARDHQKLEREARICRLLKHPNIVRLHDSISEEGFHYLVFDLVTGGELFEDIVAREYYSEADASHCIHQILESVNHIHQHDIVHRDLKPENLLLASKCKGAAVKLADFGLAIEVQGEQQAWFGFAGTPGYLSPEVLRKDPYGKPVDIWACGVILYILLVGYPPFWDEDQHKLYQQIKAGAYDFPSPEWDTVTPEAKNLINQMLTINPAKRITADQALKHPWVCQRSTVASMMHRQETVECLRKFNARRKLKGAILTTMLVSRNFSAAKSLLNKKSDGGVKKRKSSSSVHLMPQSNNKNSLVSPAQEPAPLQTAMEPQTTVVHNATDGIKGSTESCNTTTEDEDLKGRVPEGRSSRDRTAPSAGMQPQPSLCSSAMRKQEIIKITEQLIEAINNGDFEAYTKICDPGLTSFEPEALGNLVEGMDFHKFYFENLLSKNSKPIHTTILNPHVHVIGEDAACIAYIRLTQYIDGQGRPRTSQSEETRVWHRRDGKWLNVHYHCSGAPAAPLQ
How it was run: as §1

[3] = target: DDR1 (UniProt Q08345)
How it was run: as §1

[4] = target: EPHA4 (UniProt P54764); conditions: cell material: Lysate mix
Sequence of EPHA4 (P54764 whole entry): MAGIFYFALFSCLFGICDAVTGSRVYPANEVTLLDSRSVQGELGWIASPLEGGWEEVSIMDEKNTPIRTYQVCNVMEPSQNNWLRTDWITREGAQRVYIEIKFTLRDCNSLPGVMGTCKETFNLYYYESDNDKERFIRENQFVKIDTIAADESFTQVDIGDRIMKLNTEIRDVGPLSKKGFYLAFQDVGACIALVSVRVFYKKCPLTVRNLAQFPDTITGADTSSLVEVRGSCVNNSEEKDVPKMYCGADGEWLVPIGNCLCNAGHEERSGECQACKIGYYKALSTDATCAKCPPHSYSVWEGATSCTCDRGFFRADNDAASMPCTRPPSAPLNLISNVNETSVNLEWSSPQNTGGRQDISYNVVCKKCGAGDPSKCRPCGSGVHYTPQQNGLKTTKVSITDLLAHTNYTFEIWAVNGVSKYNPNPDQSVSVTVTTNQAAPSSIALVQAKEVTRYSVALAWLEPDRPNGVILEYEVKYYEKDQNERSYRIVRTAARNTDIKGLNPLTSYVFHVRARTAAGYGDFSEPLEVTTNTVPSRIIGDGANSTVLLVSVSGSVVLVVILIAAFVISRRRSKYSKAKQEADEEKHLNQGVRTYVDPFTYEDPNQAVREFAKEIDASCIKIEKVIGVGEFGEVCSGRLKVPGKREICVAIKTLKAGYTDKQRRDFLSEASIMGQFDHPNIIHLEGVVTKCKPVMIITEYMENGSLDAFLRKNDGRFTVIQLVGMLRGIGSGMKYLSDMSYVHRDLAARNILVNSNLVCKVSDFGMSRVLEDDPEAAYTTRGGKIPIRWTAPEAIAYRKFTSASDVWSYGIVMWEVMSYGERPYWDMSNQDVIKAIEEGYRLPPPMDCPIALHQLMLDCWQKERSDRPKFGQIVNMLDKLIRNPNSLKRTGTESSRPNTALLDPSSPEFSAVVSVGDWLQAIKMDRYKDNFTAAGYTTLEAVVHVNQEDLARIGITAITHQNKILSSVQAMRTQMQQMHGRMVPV
How it was run: as §1

[5] = target: MARK2 (UniProt Q7KZI7)
How it was run: as §1

[6] = target: PKN3 (UniProt Q6P5Z2); conditions: cell material: Lysate mix
Sequence of PKN3 (Q6P5Z2 whole entry, looked up): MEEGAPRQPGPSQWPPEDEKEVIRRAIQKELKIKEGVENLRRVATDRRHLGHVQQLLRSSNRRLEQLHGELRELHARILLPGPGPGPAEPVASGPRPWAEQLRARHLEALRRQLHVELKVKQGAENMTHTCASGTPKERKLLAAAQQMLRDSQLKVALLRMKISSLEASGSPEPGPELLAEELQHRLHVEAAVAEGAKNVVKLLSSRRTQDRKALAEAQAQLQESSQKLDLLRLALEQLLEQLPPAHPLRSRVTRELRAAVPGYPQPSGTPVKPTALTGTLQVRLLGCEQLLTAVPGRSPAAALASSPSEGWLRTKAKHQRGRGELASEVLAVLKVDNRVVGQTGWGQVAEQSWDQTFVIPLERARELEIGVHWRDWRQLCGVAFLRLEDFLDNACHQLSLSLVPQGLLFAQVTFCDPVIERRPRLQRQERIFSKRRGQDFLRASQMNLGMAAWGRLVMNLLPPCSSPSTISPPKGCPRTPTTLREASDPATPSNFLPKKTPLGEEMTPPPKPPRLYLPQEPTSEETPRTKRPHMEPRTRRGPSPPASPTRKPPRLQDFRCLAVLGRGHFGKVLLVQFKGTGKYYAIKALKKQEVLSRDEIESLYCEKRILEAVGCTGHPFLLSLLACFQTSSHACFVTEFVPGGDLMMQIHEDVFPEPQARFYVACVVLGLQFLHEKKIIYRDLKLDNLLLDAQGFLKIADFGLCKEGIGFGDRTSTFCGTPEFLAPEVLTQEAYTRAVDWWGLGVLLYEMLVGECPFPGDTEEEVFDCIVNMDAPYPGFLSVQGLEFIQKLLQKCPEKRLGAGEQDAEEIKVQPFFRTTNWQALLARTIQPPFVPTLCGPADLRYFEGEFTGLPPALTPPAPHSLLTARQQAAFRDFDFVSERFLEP
How it was run: as §1

[7] = target: SRC (UniProt P12931)
Sequence of SRC (P12931 whole entry, looked up): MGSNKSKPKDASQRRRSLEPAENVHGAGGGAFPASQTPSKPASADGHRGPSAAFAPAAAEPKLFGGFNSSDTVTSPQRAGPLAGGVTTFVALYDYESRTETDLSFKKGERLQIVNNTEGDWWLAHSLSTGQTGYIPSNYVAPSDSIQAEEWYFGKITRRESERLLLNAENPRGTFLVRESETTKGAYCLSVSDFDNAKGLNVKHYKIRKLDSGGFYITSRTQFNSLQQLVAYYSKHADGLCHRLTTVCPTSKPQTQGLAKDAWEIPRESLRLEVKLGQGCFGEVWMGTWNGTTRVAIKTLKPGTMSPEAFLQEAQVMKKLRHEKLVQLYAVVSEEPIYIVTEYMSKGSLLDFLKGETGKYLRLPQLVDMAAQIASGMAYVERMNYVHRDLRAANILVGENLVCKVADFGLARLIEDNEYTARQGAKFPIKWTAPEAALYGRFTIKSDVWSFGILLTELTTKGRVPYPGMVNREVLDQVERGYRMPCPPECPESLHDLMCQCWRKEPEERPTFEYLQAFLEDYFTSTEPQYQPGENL
How it was run: as §1

[8] = target: STK39 (UniProt Q9UEW8)
How it was run: as §1

[9] = target: T2, UniProt O14965
T2 sequence (whole entry): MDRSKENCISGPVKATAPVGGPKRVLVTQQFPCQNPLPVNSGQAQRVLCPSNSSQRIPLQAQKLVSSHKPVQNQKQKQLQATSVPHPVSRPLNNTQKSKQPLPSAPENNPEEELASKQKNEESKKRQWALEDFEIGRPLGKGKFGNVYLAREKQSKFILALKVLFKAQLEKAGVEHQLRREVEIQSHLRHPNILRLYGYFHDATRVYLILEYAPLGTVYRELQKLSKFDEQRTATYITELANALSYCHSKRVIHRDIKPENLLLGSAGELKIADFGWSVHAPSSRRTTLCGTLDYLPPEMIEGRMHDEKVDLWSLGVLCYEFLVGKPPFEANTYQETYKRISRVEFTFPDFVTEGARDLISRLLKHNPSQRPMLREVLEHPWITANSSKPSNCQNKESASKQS
How it was run: as §1

[10] = target: T3, UniProt P25098
T3 sequence (whole entry): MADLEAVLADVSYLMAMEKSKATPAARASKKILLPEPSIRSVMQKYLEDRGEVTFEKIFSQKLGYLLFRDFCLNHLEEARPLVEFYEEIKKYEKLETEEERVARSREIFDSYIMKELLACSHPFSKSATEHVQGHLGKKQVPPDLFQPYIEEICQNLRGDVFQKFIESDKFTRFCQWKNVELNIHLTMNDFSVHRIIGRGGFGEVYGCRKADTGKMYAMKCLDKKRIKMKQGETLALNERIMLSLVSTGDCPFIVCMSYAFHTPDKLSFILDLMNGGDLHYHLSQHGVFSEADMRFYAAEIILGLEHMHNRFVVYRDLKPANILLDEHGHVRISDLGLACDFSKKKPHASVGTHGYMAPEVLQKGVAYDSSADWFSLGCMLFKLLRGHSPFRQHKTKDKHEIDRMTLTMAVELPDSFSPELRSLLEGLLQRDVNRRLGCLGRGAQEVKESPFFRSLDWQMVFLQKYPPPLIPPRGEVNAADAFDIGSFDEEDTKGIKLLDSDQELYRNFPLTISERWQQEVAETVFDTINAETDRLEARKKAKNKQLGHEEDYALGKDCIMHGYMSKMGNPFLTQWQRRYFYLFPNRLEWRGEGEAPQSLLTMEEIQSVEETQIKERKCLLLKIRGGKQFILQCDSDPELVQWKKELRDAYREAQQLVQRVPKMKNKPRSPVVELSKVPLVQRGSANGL
How it was run: as §1

[11] = target: UniProt P45983
Sequence of UniProt P45983 (P45983 whole entry): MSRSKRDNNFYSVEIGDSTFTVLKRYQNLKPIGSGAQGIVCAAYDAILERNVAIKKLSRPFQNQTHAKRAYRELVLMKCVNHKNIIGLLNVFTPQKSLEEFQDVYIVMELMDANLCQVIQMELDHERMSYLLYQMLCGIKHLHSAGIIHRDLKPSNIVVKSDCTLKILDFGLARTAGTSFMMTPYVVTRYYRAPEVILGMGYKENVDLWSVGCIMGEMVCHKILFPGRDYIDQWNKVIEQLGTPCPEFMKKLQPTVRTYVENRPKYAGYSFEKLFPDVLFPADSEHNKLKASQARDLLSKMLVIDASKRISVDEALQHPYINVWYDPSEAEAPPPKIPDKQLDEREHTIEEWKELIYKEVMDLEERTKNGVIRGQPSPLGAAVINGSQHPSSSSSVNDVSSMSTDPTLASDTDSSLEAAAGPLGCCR
How it was run: as §1

[12] = target: T4, UniProt P46734
T4 sequence (whole entry): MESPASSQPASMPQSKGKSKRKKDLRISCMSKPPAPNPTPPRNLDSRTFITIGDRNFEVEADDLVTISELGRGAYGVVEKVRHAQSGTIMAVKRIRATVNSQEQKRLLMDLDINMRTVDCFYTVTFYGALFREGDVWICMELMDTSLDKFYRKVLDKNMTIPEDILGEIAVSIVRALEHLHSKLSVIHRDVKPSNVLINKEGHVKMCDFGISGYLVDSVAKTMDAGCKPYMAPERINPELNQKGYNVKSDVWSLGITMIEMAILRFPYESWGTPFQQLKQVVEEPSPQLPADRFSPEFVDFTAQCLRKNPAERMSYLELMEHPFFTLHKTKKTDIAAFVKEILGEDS
How it was run: as §1

[13] = target: UniProt P50613
Sequence of UniProt P50613 (P50613 whole entry): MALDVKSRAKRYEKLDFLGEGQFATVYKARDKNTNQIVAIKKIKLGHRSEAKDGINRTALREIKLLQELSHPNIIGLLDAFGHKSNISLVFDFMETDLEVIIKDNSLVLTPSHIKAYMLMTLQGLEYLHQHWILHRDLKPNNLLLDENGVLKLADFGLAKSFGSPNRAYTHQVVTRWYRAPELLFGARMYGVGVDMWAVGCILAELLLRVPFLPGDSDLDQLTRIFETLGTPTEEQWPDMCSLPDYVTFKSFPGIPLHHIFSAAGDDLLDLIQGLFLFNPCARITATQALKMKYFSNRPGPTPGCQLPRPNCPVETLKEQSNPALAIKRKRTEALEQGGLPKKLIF
How it was run: as §1

[14] = target: UniProt Q14289
Sequence of UniProt Q14289 (Q14289 whole entry, looked up): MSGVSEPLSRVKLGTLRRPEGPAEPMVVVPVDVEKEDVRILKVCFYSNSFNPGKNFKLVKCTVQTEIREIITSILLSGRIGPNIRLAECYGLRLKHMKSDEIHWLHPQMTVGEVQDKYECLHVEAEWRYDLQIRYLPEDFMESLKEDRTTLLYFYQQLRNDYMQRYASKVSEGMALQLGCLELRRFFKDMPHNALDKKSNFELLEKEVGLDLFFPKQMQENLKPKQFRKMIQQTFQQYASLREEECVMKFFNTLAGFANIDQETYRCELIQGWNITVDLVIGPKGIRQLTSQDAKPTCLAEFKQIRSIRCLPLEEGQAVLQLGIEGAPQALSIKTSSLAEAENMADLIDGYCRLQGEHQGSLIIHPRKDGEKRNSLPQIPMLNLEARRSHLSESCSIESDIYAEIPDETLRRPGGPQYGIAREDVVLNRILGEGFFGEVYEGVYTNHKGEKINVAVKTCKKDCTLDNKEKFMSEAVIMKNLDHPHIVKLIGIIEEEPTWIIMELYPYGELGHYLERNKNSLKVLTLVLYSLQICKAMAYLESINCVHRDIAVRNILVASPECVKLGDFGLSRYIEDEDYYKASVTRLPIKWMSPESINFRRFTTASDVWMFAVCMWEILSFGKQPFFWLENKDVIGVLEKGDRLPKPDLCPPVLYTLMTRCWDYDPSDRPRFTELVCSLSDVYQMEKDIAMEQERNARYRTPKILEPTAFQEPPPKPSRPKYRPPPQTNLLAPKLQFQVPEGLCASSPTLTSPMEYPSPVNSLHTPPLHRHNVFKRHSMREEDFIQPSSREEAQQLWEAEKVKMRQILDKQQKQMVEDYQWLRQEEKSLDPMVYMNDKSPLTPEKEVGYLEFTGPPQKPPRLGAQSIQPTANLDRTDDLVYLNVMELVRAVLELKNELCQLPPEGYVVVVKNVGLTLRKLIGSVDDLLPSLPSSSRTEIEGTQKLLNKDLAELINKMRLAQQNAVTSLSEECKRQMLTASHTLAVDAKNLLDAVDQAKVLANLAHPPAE
How it was run: as §1

[15] = target: UniProt Q16659
How it was run: as §1

- pIC50 ([1]; cell material: Jurkat cells): 4.68
- pIC50 ([1]; cell material: Jurkat lysate): < 4.52
- pIC50 ([1]; cell material: Lysate mix): < 4.52
- pIC50 ([2]; cell material: Jurkat cells): < 4.52
- pIC50 ([2]; cell material: Jurkat lysate): < 4.52
- pIC50 ([2]; cell material: Lysate mix): < 4.52
- pIC50 ([3]; cell material: Jurkat cells): < 4.52
- pIC50 ([3]; cell material: Jurkat lysate): < 4.52
- pIC50 ([3]; cell material: Lysate mix): < 4.52
- pIC50 [4]: < 4.52
- pIC50 ([5]; cell material: Jurkat cells): 5.04
- pIC50 ([5]; cell material: Jurkat lysate): < 4.52
- pIC50 ([5]; cell material: Lysate mix): < 4.52
- pIC50 [6]: < 4.52
- pIC50 ([7]; cell material: Jurkat cells): 5.9
- pIC50 ([7]; cell material: Jurkat lysate): < 4.52
- pIC50 ([8]; cell material: Jurkat cells): 5.62
- pIC50 ([8]; cell material: Jurkat lysate): < 4.52
- pIC50 ([9]; cell material: Jurkat cells): 6.98
- pIC50 ([9]; cell material: Jurkat lysate): 5
- pIC50 ([9]; cell material: Lysate mix): 5.3
- pIC50 ([10]; cell material: Jurkat cells): 5
- pIC50 ([10]; cell material: Jurkat lysate): < 4.52
- pIC50 ([10]; cell material: Lysate mix): < 4.52
- pIC50 ([11]; cell material: Jurkat cells): 4.88
- pIC50 ([11]; cell material: Jurkat lysate): < 4.52
- pIC50 ([11]; cell material: Lysate mix): < 4.52
- pIC50 ([12]; cell material: Jurkat cells): < 4.52
- pIC50 ([12]; cell material: Jurkat lysate): < 4.52
- pIC50 ([12]; cell material: Lysate mix): < 4.52
- pIC50 ([13]; cell material: Jurkat cells): 6.12
- pIC50 ([13]; cell material: Jurkat lysate): 4.7
- pIC50 ([14]; cell material: Jurkat cells): 4.98
- pIC50 ([14]; cell material: Jurkat lysate): < 4.52
- pIC50 ([14]; cell material: Lysate mix): < 4.52
- pIC50 ([15]; cell material: Jurkat cells): < 4.52
- pIC50 ([15]; cell material: Jurkat lysate): < 4.52
- pIC50 ([15]; cell material: Lysate mix): < 4.52
Compound: O=C(NCCNC(=O)c1cc(Nc2cc(C3CC3)[nH]n2)nc(N2CCN(Cc3ccc(S(=O)(=O)F)cc3)CC2)n1)OC1CC/C=C/CCC1 (stereo not drawn)

- pIC50 ([1]; cell material: Lysate mix): 4.74
- pIC50 ([2]; cell material: Lysate mix): < 4.52
- pIC50 ([3]; cell material: Lysate mix): < 4.52
- pIC50 [4]: < 4.52
- pIC50 ([5]; cell material: Lysate mix): < 4.52
- pIC50 [6]: < 4.52
- pIC50 ([7]; cell material: Lysate mix): 6.14
- pIC50 ([8]; cell material: Lysate mix): 5.65
- pIC50 ([9]; cell material: Lysate mix): 6.86
- pIC50 ([10]; cell material: Lysate mix): < 4.52
- pIC50 ([11]; cell material: Lysate mix): 4.65
- pIC50 ([12]; cell material: Lysate mix): 4.9
- pIC50 ([13]; cell material: Lysate mix): 6.33
- pIC50 ([14]; cell material: Lysate mix): < 4.52
- pIC50 ([15]; cell material: Lysate mix): < 4.52
Compound: CCNC(=O)c1cc(Nc2cc(C3CC3)[nH]n2)nc(N2CCN(Cc3ccc(S(=O)(=O)F)cc3)CC2)n1

- pIC50 ([1]; cell material: Lysate mix): < 4.52
- pIC50 ([2]; cell material: Lysate mix): < 4.52
- pIC50 ([3]; cell material: Lysate mix): < 4.52
- pIC50 [4]: < 4.52
- pIC50 ([5]; cell material: Lysate mix): < 4.52
- pIC50 [6]: < 4.52
- pIC50 ([7]; cell material: Lysate mix): 6.61
- pIC50 ([8]; cell material: Lysate mix): 4.66
- pIC50 ([9]; cell material: Lysate mix): 7.67
- pIC50 ([10]; cell material: Lysate mix): < 4.52
- pIC50 ([11]; cell material: Lysate mix): 4.64
- pIC50 ([12]; cell material: Lysate mix): < 4.52
- pIC50 ([13]; cell material: Lysate mix): 5
- pIC50 ([14]; cell material: Lysate mix): < 4.52
- pIC50 ([15]; cell material: Lysate mix): < 4.52
Compound: CCNC(=O)c1cc(Nc2cc(C)[nH]n2)nc(N2CCN(Cc3ccc(S(=O)(=O)F)cc3)CC2)n1

- pIC50 ([1]; cell material: Lysate mix): < 4.52
- pIC50 ([2]; cell material: Lysate mix): < 4.52
- pIC50 ([3]; cell material: Lysate mix): < 4.52
- pIC50 [4]: < 4.52
- pIC50 ([5]; cell material: Lysate mix): < 4.52
- pIC50 [6]: < 4.52
- pIC50 ([7]; cell material: Lysate mix): 4.7
- pIC50 ([8]; cell material: Lysate mix): < 4.52
- pIC50 ([9]; cell material: Lysate mix): 5.39
- pIC50 ([10]; cell material: Lysate mix): < 4.52
- pIC50 ([11]; cell material: Lysate mix): < 4.52
- pIC50 ([12]; cell material: Lysate mix): < 4.52
- pIC50 ([13]; cell material: Lysate mix): < 4.52
- pIC50 ([14]; cell material: Lysate mix): < 4.52
- pIC50 ([15]; cell material: Lysate mix): < 4.52
Compound: Cc1cc(Nc2cc(C(=O)NCCNC(=O)OC3CC/C=C/CCC3)nc(N3CCN(Cc4ccc(S(=O)(=O)F)cc4)CC3)n2)n[nH]1 (stereo not drawn)
